This is an account of results in patent US8912227B1, “Bicyclic pyrrole derivatives useful as agonists of GPR120” (Janssen Pharmaceutica NV, priority 2014, dated 2014).

The experiment concerns the target T1, short form of the GPR120 receptor (Homo sapiens, UniProt Q5NUL3).
T1 construct: host or cells: PathHunter CHO-K1 GPR120S β-Arrestin Cell Line
The experiment is described as follows: Human GPR120 DiscoveRx PathHunter β-Arrestin assay, Procedure β-arrestin B. In kind it is cell-based. Particulars: PathHunter CHO-K1 GPR120S β-Arrestin cell line, 5000 cells/well. From the text:
The binding of an agonist (medium/long chain fatty acids or small molecule agonists) to the G-protein-coupled receptor GPR120 activates phospholipase C, leading to release of intracellular Ca^+2 through the generation of inositol 1,4,5-trisphosphate (InsP3 or IP3). GPR120 activation can also trigger intracellular signaling via recruitment of β-Arrestin. In the present method, agonist-induced activation of the human GPR120 receptor is monitored through the use of PathHunter CHO-K1 GPR120 β-Arrestin Cell Line engineered by DiscoveRx, as detailed below. The cell lines are designed to co-express both the ProLink/Enzyme Donor (PK)-tagged GPCR and the Enzyme […] (EA)-tagged Beta-Arrestin fusion proteins. Upon GPR120 receptor stimulation/activation, the EA-tagged β-Arrestin portion is translocated to the tagged receptor, where the two enzyme fragments are brought within close proximity. Under these conditions, these fragments can interact and form an active Beta-gal enzyme complex through Enzyme Fragment Complementation (EFC). This active Beta-gal complex can enzymatically hydrolyse the substrate to produce a detectable light signal; therefore, activation as a function of agonist concentration can be expressed as an EC50 value to determine relative compound activities. This in vitro assay therefore serves to assess compound agonist activity of the GPR120.
In Procedure β-arrestin B the cells used were PathHunter CHO-K1 GPR120S β-Arrestin Cell Line, expressing the short form of the GPR120 receptor (Accession #NM_181745), with 5000 cells/well.
The selected CHO-K1 GPR120 β-Arrestin cells were cultured in Ham's F12 media supplemented with 10% fetal bovine serum (FBS), 1% Glutamine, 1×p/s, 800 μg/ml G418 and 300 μg/ml Hygromycin B (for selection). Cell stocks were maintained and grown in a sub-confluent state using standard cell culture procedures. The day before the experiment, the cells were harvested with non-enzymatic cell dissociation buffer and re-suspended in complete growth media at the desired concentration. A Corning 384-plate was then seeded with the proper number of cells in a volume of 25 μL, per well. The seeded plates were incubated overnight at 37° C.
On the day of the experiment, the Assay Buffer containing (a) HBSS with Ca^++ and Mg^++, (b) 20 mM HEPES, and (c) 0.1% BSA stabilizer (pH 7.4) was prepared. The growth medium was gently removed from the cell plates and 20 μL of Assay Buffer added to each well. The plate was then incubated at 37° C. for 60 mins. Test compounds were serially diluted in Assay Buffer to desired concentrations (more particularly, to one or more of the following μM concentrations: 25 μM, 12.5 μM, 6.25 μM, 3.125 μM, 1.562 μM, 0.781 μM, 0.391 μM, 0.195 μM, 0.098 μM, 0.049 μM, 0.024 μM, 0.012 μM). Five μl of compound dilution was then added to each well and the plate incubated at 37° C. for 90 mins. The detection reagents were prepared according to the manufacture's instruction. Twelve μL of the detection reagents were added to each well and the plate incubated at room temperature for 60 mins.
The plates were read on an EnVision instrument, using Protocol name: Luminescence, Plate type: 384 Costar, Measurement height: 3 mm, Measurement time: 1 s, Aperture: 384 Plate aperture. The % activity relative to the positive control was calculated using the following equation:
The % Activity values were plotted versus the concentration of test compound and fitted to a sigmoidal dose-response curve with a Hill slope=1 (fixed value) using nonlinear regression with GraphPad Prism 5.0 to calculate the EC50 values. The Fitting Equation was: Y=Bottom+(Top−Bottom)/(1+10^((LogEC50−X)*HillSlope)), where X is the log of the concentration and Y is the response.

The structures appear in SMILES notation.

T1 sequence (Q5NUL3 whole entry): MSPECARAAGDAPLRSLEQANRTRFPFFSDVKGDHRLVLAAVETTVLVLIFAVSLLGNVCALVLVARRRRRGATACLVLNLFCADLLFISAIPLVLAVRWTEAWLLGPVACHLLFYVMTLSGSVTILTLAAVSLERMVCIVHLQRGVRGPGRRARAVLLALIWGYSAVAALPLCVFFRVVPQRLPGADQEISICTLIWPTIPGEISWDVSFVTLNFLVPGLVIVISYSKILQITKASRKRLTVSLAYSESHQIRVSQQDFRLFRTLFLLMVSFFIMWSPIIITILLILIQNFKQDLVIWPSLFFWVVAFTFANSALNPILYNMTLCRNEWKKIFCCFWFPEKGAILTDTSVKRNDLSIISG
T1 sequence (P32121 whole entry partner): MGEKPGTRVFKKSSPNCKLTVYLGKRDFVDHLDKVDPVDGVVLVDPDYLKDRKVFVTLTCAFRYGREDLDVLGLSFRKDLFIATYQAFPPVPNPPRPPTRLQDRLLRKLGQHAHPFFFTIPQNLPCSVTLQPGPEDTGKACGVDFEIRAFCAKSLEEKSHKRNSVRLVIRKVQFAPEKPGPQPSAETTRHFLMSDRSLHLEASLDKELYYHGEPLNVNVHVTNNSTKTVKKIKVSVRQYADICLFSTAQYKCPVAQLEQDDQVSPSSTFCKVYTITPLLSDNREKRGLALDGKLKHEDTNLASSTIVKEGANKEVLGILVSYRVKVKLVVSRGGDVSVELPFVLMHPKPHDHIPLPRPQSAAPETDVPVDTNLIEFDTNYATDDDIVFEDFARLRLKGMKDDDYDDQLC

Turning to `CCc1ccc(-n2ccc(C(F)(F)F)c2COc2ccc(CCC(=O)O)c(F)c2F)cc1` [Compound 34, 3-(4-[[1-(4-ethylphenyl)-3-(trifluoromethyl)-1H-pyrrol-2-yl]methoxy]-2,3-difluorophenyl)propanoic acid], the midpoint of the response, the EC50, lay at 179 nM.

As for `OCCCc1ccc(OCc2c(C(F)(F)F)ccn2-c2ccc(Cl)cc2)c(F)c1F` [Compound 29, 3-(4-{[1-(4-Chlorophenyl)-3-(trifluoromethyl)-1H-pyrrol-2-yl]methoxy}-2,3-difluorophenyl)propan-1-ol], a half-maximal effect (EC50) was put at 63 nM. The molecule `Cc1ccc(-n2ccc(C(F)(F)F)c2COc2c(F)cc(CCC(=O)O)cc2F)cc1` [Compound 39, 3-(3,5-difluoro-4-[[1-(4-methylphenyl)-3-(trifluoromethyl)-1H-pyrrol-2-yl]methoxy]phenyl)propanoic acid] yielded an EC50 of 219 nM.

For orientation: EC50 means the concentration giving half of the maximal effect.
